Assay results: ChEMBL document CHEMBL4507261, “Data for DCP probe A-192621” (2021)

Legend:
[1] = molecular target: Aurora kinase C (Homo sapiens) (UniProt Q9UQB9); details: Compound concentration 1000.0 nM
[2] = molecular target: Dual specificity tyrosine-phosphorylation-regulated kinase 1A (Homo sapiens) (UniProt Q13627); details: Compound concentration 1000.0 nM
[3] = molecular target: Serine/threonine-protein kinase MRCK alpha (Homo sapiens) (UniProt Q5VT25); details: Compound concentration 1000.0 nM
[4] = molecular target: G protein-coupled receptor kinase 4 (Homo sapiens) (UniProt P32298); details: Compound concentration 1000.0 nM
[5] = molecular target: Cyclin-G-associated kinase (Homo sapiens) (UniProt O14976); details: Compound concentration 1000.0 nM
[6] = molecular target: Serine/threonine-protein kinase N2 (Homo sapiens) (UniProt Q16513); details: Compound concentration 1000.0 nM
[7] = molecular target: Mitogen-activated protein kinase 7 (Homo sapiens) (UniProt Q13164); details: Compound concentration 1000.0 nM
[8] = molecular target: Serine/threonine-protein kinase TNNI3K (Homo sapiens) (UniProt Q59H18); details: Compound concentration 1000.0 nM
[9] = molecular target: Dual specificity mitogen-activated protein kinase kinase 3 (Homo sapiens) (UniProt P46734); details: Compound concentration 1000.0 nM
[10] = molecular target: Activin receptor type-2A (Homo sapiens) (UniProt P27037); details: Compound concentration 1000.0 nM
[11] = tested on: Phosphatidylinositol 4,5-bisphosphate 3-kinase catalytic subunit alpha isoform (Homo sapiens), P42336 [E545K]; details: Compound concentration 1000.0 nM
[12] = molecular target: RAF proto-oncogene serine/threonine-protein kinase (Homo sapiens) (UniProt P04049); details: Compound concentration 1000.0 nM
[13] = molecular target: 1-phosphatidylinositol 3-phosphate 5-kinase (Homo sapiens) (UniProt Q9Y2I7); details: Compound concentration 1000.0 nM
[14] = tested on: Receptor-type tyrosine-protein kinase FLT3 (Homo sapiens), P36888 [UNDEFINED MUTATION]; details: Compound concentration 1000.0 nM
[15] = molecular target: Phosphatidylinositol 4-kinase beta (Homo sapiens) (UniProt Q9UBF8); details: Compound concentration 1000.0 nM
[16] = molecular target: Cyclin-dependent kinase 2 (Homo sapiens) (UniProt P24941); details: Compound concentration 1000.0 nM
[17] = molecular target: cGMP-dependent protein kinase 2 (Homo sapiens) (UniProt Q13237); details: Compound concentration 1000.0 nM
[18] = molecular target: Serine/threonine-protein kinase PLK1 (Homo sapiens) (UniProt P53350); details: Compound concentration 1000.0 nM
[19] = molecular target: Calcium/calmodulin-dependent protein kinase kinase 2 (Homo sapiens) (UniProt Q96RR4); details: Compound concentration 1000.0 nM
[20] = molecular target: Serine/threonine-protein kinase Nek7 (Homo sapiens) (UniProt Q8TDX7); details: Compound concentration 1000.0 nM
[21] = molecular target: Phosphatidylinositol 4,5-bisphosphate 3-kinase catalytic subunit beta isoform (Homo sapiens) (UniProt P42338); details: Compound concentration 1000.0 nM
[22] = molecular target: Serine/threonine-protein kinase Nek1 (Homo sapiens) (UniProt Q96PY6); details: Compound concentration 1000.0 nM
[23] = molecular target: Serine/threonine-protein kinase B-raf (Homo sapiens) (UniProt P15056); details: Compound concentration 1000.0 nM
[24] = molecular target: cAMP-dependent protein kinase catalytic subunit beta (Homo sapiens) (UniProt P22694); details: Compound concentration 1000.0 nM
[25] = molecular target: SRSF protein kinase 2 (Homo sapiens) (UniProt P78362); details: Compound concentration 1000.0 nM
[26] = molecular target: MAP kinase-interacting serine/threonine-protein kinase 1 (Homo sapiens) (UniProt Q9BUB5); details: Compound concentration 1000.0 nM
[27] = molecular target: MAP/microtubule affinity-regulating kinase 4 (Homo sapiens) (UniProt Q96L34); details: Compound concentration 1000.0 nM
[28] = molecular target: Serine/threonine-protein kinase ICK (Homo sapiens) (UniProt Q9UPZ9); details: Compound concentration 1000.0 nM
[29] = molecular target: Serine/threonine-protein kinase TBK1 (Homo sapiens) (UniProt Q9UHD2); details: Compound concentration 1000.0 nM
[30] = molecular target: Tyrosine-protein kinase ABL1 (Homo sapiens) (UniProt P00519); details: Compound concentration 1000.0 nM
[31] = tested on: Phosphatidylinositol 4,5-bisphosphate 3-kinase catalytic subunit alpha isoform (Homo sapiens), P42336 [H1047Y]; details: Compound concentration 1000.0 nM
[32] = molecular target: Mitogen-activated protein kinase kinase kinase 11 (Homo sapiens) (UniProt Q16584); details: Compound concentration 1000.0 nM
[33] = molecular target: Serine/threonine-protein kinase SIK3 (Homo sapiens) (UniProt Q9Y2K2); details: Compound concentration 1000.0 nM
[34] = molecular target: Mitogen-activated protein kinase 13 (Homo sapiens) (UniProt O15264); details: Compound concentration 1000.0 nM
[35] = molecular target: Serine/threonine-protein kinase OSR1 (Homo sapiens) (UniProt O95747); details: Compound concentration 1000.0 nM
[36] = molecular target: Acetylcholinesterase (Homo sapiens) (UniProt P22303); test: Acetylcholinesterase (h) Eurofins-Cerep enzyme and uptake assay; details: Compound concentration 10.0 uM
[37] = molecular target: Prostaglandin G/H synthase 2 (Homo sapiens) (UniProt P35354); test: COX2(h) Eurofins-Cerep enzyme and uptake assay; details: Compound concentration 10.0 uM
[38] = molecular target: Mitogen-activated protein kinase kinase kinase 10 (Homo sapiens) (UniProt Q02779); details: Compound concentration 1000.0 nM
[39] = molecular target: Serine/threonine-protein kinase PAK 6 (Homo sapiens) (UniProt Q9NQU5); details: Compound concentration 1000.0 nM
[40] = tested on: Serine/threonine-protein kinase B-raf (Homo sapiens), P15056 [V600E]; details: Compound concentration 1000.0 nM

Aurora kinase C (Homo sapiens), sequence (Q9UQB9 whole entry): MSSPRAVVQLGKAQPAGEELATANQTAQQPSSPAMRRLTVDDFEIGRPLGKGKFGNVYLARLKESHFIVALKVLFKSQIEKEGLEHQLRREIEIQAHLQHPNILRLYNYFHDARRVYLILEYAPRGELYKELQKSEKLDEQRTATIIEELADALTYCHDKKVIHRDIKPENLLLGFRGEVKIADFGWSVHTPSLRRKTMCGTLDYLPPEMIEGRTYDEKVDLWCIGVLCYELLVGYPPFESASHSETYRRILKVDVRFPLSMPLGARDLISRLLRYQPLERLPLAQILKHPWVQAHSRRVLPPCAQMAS
Phosphatidylinositol 4,5-bisphosphate 3-kinase catalytic subunit alpha isoform (Homo sapiens), P42336 [H1047Y], sequence (P42336 whole entry H1047Y, canonical isoform): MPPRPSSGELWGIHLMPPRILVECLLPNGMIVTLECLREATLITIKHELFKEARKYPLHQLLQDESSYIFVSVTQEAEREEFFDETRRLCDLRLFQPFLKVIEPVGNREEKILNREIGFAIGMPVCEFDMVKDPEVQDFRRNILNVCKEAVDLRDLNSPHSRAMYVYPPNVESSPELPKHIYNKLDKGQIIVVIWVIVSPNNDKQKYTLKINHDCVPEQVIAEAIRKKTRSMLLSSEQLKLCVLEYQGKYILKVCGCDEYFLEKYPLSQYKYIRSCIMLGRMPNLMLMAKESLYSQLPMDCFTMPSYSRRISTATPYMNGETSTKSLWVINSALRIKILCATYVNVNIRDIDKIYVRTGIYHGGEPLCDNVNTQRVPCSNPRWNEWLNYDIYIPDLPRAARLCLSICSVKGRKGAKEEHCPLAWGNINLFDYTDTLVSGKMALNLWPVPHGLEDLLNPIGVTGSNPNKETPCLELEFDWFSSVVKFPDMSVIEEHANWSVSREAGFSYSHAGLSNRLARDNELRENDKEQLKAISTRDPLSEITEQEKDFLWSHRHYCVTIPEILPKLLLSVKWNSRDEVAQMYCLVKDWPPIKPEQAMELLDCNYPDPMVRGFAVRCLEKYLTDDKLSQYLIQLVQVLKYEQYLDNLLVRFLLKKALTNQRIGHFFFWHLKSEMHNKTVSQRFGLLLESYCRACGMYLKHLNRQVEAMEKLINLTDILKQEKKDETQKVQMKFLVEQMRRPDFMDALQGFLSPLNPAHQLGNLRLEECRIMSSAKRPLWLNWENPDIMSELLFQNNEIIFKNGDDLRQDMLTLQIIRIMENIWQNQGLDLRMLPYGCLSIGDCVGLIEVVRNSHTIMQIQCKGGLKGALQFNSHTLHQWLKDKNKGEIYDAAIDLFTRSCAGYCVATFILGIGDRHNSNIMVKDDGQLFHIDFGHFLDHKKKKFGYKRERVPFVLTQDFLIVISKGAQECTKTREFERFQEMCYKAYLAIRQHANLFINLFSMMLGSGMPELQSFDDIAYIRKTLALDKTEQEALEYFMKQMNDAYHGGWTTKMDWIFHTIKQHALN
Serine/threonine-protein kinase N2 (Homo sapiens), sequence (Q16513 whole entry, looked up): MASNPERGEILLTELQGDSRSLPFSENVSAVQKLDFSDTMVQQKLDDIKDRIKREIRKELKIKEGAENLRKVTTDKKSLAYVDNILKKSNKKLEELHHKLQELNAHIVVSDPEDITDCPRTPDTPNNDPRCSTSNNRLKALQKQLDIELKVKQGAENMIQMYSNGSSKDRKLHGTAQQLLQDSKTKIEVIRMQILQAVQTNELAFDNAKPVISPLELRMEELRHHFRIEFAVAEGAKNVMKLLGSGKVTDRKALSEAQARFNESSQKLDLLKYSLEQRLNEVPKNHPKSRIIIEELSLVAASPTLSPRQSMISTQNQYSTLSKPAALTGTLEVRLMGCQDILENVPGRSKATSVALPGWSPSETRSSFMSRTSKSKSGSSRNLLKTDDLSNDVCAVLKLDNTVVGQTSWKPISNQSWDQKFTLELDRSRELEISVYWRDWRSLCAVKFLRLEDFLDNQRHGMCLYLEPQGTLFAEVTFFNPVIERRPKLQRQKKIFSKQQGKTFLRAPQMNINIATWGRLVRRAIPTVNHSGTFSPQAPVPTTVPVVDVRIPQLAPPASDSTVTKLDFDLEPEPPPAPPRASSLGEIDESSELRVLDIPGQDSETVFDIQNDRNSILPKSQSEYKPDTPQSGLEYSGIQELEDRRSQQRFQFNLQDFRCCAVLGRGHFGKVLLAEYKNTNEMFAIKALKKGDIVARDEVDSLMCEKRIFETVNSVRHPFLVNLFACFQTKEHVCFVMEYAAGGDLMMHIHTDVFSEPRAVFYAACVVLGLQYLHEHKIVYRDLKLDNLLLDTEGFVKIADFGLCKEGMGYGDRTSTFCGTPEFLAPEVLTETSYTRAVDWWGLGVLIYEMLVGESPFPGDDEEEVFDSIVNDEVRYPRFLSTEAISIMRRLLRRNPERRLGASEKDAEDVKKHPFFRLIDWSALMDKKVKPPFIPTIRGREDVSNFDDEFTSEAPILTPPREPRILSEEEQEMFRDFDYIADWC
cGMP-dependent protein kinase 2 (Homo sapiens), sequence (Q13237 whole entry): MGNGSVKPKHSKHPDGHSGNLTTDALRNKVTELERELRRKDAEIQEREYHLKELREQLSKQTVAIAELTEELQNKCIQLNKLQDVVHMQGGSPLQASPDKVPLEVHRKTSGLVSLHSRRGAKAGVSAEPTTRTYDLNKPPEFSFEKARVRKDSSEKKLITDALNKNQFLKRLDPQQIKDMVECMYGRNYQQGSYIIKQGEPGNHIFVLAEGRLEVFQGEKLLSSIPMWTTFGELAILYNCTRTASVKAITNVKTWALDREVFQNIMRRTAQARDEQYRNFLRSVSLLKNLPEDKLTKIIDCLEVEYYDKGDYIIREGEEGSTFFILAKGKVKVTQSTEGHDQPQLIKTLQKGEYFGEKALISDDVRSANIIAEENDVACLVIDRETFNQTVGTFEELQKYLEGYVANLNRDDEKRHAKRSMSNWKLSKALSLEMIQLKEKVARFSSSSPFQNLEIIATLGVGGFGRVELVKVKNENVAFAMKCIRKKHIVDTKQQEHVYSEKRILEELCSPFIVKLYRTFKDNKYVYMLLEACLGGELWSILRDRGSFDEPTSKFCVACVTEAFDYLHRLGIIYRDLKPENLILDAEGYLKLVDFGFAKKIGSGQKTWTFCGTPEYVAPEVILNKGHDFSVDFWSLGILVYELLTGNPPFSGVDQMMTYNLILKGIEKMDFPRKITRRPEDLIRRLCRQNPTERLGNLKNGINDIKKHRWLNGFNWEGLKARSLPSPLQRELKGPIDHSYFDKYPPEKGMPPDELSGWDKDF
MAP kinase-interacting serine/threonine-protein kinase 1 (Homo sapiens), sequence (Q9BUB5 whole entry, looked up): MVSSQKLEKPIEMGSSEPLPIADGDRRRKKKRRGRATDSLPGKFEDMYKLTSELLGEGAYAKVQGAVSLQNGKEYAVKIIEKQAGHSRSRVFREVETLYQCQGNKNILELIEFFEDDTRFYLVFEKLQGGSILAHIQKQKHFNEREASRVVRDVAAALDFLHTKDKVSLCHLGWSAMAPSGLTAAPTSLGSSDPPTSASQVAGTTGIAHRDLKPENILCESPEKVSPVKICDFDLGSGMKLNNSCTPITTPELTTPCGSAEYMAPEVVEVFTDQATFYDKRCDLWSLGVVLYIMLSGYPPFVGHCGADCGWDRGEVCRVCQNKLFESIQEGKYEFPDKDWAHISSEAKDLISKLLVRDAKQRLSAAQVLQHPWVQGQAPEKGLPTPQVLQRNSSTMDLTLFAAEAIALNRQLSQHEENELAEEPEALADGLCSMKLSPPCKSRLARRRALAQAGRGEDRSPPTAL
Serine/threonine-protein kinase PAK 6 (Homo sapiens), sequence (Q9NQU5 whole entry, looked up): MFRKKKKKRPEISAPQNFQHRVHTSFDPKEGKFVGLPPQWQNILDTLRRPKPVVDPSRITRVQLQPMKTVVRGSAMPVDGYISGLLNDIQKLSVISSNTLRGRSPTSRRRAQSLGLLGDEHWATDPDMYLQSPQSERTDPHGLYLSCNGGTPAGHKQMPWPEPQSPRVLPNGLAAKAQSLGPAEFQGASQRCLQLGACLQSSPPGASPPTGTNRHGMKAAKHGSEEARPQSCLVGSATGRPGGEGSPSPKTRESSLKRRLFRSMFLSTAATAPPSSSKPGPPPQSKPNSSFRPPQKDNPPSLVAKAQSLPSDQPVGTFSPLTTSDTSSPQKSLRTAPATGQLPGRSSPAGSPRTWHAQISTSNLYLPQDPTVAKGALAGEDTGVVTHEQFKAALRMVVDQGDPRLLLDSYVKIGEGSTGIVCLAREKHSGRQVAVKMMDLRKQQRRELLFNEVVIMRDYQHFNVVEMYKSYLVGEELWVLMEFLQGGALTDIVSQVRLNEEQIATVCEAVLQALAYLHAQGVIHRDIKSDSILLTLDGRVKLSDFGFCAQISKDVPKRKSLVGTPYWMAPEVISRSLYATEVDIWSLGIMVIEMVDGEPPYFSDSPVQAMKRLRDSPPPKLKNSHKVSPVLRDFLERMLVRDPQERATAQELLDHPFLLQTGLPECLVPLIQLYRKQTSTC
Serine/threonine-protein kinase PLK1 (Homo sapiens), sequence (P53350 whole entry): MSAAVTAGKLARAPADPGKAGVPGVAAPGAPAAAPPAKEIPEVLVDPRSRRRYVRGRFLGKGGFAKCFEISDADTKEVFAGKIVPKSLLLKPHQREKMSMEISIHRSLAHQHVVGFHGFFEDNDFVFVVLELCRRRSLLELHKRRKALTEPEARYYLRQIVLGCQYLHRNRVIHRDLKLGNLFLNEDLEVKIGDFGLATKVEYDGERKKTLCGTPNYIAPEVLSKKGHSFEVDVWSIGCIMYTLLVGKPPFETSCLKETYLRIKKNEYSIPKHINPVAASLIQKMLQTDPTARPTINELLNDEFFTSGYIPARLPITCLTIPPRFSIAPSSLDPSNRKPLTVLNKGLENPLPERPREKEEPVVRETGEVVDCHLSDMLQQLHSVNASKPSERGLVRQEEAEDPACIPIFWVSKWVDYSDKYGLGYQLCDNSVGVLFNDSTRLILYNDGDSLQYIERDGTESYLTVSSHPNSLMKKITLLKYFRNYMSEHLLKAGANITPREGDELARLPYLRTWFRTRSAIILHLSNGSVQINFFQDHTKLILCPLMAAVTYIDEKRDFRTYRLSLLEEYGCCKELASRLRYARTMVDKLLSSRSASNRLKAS
Phosphatidylinositol 4,5-bisphosphate 3-kinase catalytic subunit alpha isoform (Homo sapiens), P42336 [E545K], sequence (P42336 whole entry E545K, canonical isoform): as the sequence (P42336 whole entry H1047Y, canonical isoform) above, with E545K, Y1047H counted along it

SMILES | residual activity [1] [%] | residual activity [2] [%] | residual activity [3] [%] | residual activity [4] [%] | residual activity [5] [%] | residual activity [6] [%] | residual activity [7] [%] | residual activity [8] [%] | residual activity [9] [%] | residual activity [10] [%] | residual activity [11] [%] | residual activity [12] [%] | residual activity [13] [%] | residual activity [14] [%] | residual activity [15] [%] | residual activity [16] [%] | residual activity [17] [%] | residual activity [18] [%] | residual activity [19] [%] | residual activity [20] [%] | also measured
CCCOc1ccc([C@H]2[C@H](C(=O)O)[C@@H](c3ccc4c(c3)OCO4)CN2CC(=O)Nc2c(CC)cccc2CC)cc1 [A-192621] | 91 | 73 | 94 | 100 | 93 | 100 | 97 | 100 | 60 | 100 | 61 | 98 | 86 | 59 | 75 | 87 | 82 | 80 | 93 | 96 | residual activity [21]: 73%; residual activity [22]: 87%; residual activity [23]: 80%; residual activity [24]: 87%; residual activity [25]: 96%; residual activity [26]: 65%; residual activity [27]: 97%; residual activity [28]: 59%; residual activity [29]: 91%; residual activity [30]: 70%; residual activity [31]: 78%; residual activity [32]: 100%; residual activity [33]: 71%; residual activity [34]: 92%; residual activity [35]: 75%; % Inhibition of Control Values (Mean n=2) [36]: 7%; % Inhibition of Control Values (Mean n=2) [37]: 44%; residual activity [38]: 100%; residual activity [39]: 68%; residual activity [40]: 76%
CCCOc1ccc([C@@H]2[C@@H](C(=O)O)[C@H](c3ccc4c(c3)OCO4)CN2CC(=O)Nc2c(CC)cccc2CC)cc1 [A-1806262] | 94 | 86 | 90 | 100 | 98 | 100 | 93 | 84 | 82 | 100 | 68 | 100 | 91 | 61 | 100 | 87 | 83 | 95 | 84 | 100 | residual activity [21]: 92%; residual activity [22]: 100%; residual activity [23]: 96%; residual activity [24]: 100%; residual activity [25]: 100%; residual activity [26]: 73%; residual activity [27]: 100%; residual activity [28]: 100%; residual activity [29]: 100%; residual activity [30]: 88%; residual activity [31]: 100%; residual activity [32]: 100%; residual activity [33]: 89%; residual activity [34]: 100%; residual activity [35]: 79%; % Inhibition of Control Values (Mean n=2) [36]: 4%; % Inhibition of Control Values (Mean n=2) [37]: 34%; residual activity [38]: 100%; residual activity [39]: 83%; residual activity [40]: 98%
